Key:
[1] = molecular target: Sodium-dependent dopamine transporter (Rattus norvegicus, UniProt P23977); experiment: Affinity for dopamine transporter was assessed by the ability to displace [3H]WIN-35428 from rat caudate-putamen tissue; format: tissue-based
Rattus norvegicus [2] = experiment: Percent maximum effect at 89.3 mmol/kg dose that causes compound-appropriate response in rats, trained to discriminate cocaine; format: functional
Rattus norvegicus [3] = organism: Rattus norvegicus; experiment: Ability to inhibit [3H]dopamine uptake was measured in a chopped tissue assay; format: functional, organism-based
Rattus norvegicus [4] = experiment: Percent maximum effect at 27.0 mmol/kg dose that causes compound-appropriate response in rats, trained to discriminate cocaine; format: functional
Rattus norvegicus [5] = experiment: Percent maximum effect at 39.0 mmol/kg dose that causes compound-appropriate response in rats, trained to discriminate cocaine; format: functional
[6] = molecular target: Norepinephrine transporter (Rattus norvegicus, UniProt Q9WTR4); experiment: Binding affinity for Norepinephrine transporter is assessed from the ability to displace [3H]nisoxetine from rat frontal cortex; format: tissue-based
Rattus norvegicus [7] = experiment: Percent maximum effect at 54.9 mmol/kg dose that causes compound-appropriate response in rats, trained to discriminate cocaine; format: functional
[8] = molecular target: Sodium-dependent serotonin transporter (Rattus norvegicus, UniProt P31652); experiment: Binding affinity for serotonin transporter is assessed from the ability to displace [3H]citalopram from rat brain.
Rattus norvegicus [9] = experiment: Percent maximum effect at 37.7 mmol/kg dose that causes compound-appropriate response in rats, trained to discriminate cocaine; format: functional
Rattus norvegicus [10] = organism: Rattus norvegicus; experiment: Effective dose that causes 50 percent of compound-appropriate response in rats, trained to discriminate cocaine; Value ranges from (22-51.4), effect is nonsignificant at this dose; format: functional
Rattus norvegicus [11] = experiment: Percent maximum effect at 2.69 mmol/kg dose that causes compound-appropriate response in rats, trained to discriminate cocaine; format: functional
Rattus norvegicus [12] = organism: Rattus norvegicus; experiment: Effective dose that causes 50 percent of compound-appropriate response in rats, trained to discriminate cocaine; Value ranges from (9.07-256), effect is nonsignificant at this dose; format: functional
Rattus norvegicus [13] = organism: Rattus norvegicus; experiment: Effective dose that causes 50 percent of compound-appropriate response in rats, trained to discriminate cocaine; NS means Nonsignificant linear regression.; format: functional, organism-based
Rattus norvegicus [14] = experiment: Percent maximum effect at 45.7 mmol/kg dose that causes compound-appropriate response in rats, trained to discriminate cocaine; format: functional
Rattus norvegicus [15] = organism: Rattus norvegicus; experiment: Effective dose that causes 50 percent of compound-appropriate response in rats, trained to discriminate cocaine; Value ranges from (17.1-1.22)x10E5, effect is nonsignificant at this dose; format: functional

Chain of Sodium-dependent serotonin transporter (P31652 whole entry): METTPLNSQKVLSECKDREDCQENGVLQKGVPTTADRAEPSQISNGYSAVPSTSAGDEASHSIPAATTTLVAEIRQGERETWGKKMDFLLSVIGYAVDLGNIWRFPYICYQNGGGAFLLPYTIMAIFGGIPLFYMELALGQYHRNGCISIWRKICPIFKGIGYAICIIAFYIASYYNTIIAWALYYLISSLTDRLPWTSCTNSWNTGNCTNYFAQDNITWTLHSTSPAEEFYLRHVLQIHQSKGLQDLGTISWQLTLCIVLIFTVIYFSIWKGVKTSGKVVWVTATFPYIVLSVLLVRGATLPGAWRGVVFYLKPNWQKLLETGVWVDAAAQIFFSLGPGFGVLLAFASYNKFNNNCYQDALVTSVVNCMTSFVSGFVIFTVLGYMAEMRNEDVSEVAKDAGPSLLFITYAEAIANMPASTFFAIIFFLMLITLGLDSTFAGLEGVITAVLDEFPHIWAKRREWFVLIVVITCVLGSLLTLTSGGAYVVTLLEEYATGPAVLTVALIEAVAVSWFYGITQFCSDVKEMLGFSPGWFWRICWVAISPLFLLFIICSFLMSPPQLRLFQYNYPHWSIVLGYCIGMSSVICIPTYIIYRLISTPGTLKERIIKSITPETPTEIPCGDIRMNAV
Chain of Norepinephrine transporter (Q9WTR4 whole entry): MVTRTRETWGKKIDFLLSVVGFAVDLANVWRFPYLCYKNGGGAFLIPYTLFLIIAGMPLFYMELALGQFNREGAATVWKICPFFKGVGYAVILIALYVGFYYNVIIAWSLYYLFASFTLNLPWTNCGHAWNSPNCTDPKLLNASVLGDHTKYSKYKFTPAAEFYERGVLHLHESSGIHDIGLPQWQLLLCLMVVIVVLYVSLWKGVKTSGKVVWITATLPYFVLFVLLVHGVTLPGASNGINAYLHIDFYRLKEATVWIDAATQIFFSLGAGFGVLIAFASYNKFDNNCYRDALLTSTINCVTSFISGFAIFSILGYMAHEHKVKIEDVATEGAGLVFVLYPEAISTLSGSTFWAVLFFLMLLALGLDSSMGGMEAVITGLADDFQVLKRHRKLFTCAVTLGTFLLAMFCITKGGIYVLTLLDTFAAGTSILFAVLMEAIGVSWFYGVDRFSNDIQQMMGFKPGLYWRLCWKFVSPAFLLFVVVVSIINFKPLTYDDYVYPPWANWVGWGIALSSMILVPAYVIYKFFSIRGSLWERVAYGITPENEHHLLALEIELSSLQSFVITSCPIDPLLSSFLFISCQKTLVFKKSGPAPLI
Chain of Sodium-dependent dopamine transporter (P23977 whole entry): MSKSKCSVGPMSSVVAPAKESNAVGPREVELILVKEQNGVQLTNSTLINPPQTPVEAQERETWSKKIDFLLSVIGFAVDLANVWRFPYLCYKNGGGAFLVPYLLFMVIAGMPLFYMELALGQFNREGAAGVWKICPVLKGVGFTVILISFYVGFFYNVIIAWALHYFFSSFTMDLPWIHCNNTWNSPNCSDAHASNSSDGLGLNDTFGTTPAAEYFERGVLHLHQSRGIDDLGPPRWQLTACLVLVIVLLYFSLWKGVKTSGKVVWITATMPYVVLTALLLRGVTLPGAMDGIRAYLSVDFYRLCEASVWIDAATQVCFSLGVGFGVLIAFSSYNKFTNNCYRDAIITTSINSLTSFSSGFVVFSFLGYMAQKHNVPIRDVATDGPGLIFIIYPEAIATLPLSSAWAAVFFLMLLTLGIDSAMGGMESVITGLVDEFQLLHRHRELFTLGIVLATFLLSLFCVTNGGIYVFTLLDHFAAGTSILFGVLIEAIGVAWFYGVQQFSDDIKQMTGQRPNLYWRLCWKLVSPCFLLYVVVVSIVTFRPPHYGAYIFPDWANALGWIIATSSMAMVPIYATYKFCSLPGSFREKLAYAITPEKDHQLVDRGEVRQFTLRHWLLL

COC(=O)/C=C/C1C(c2ccc(C)cc2)C[C@H]2CCC1N2C (some centres undefined)
Ki [1]: 123 nM
Max effect (Rattus norvegicus [2]): 69.9%
IC50 (Rattus norvegicus [3]): 311 nM

Cc1ccc(C(=O)C2C(c3ccc(C)cc3)CC3CCC2N3C)cc1 (centres undefined)
Max effect (Rattus norvegicus [4]): 100%
Ki [1]: 17 nM
IC50 (Rattus norvegicus [3]): 82 nM

Cc1ccc(CC2C(c3ccc(C)cc3)C[C@H]3CCC2N3C)cc1 (some centres undefined)
Max effect (Rattus norvegicus [5]): 82.8%
Ki [1]: 11 nM
IC50 (Rattus norvegicus [3]): 16 nM
Ki [6]: 271 nM

Cc1ccc(C2C[C@H]3CCC(C2CCCO)N3C)cc1 (some centres undefined)
Ki [1]: 136 nM
IC50 (Rattus norvegicus [3]): 266 nM
Max effect (Rattus norvegicus [7]): 93.9%

Cc1ccc([C@@H](O)[C@@H]2C3CC[C@H](C[C@@H]2c2ccc(C)cc2)N3C)cc1
Ki [1]: 85 nM
IC50 (Rattus norvegicus [3]): 107 nM
Ki [8]: 70 nM
Ki [6]: 214 nM
Max effect (Rattus norvegicus [9]): 66.7%
ED50 (Rattus norvegicus [10]): 31400 µmol/kg

Cc1ccc(C2C[C@H]3CCC([C@@H]2CO)N3C)cc1 (some centres undefined)
Ki [1]: 3490 nM
Max effect (Rattus norvegicus [11]): 2.96%
IC50 (Rattus norvegicus [3]): 4040 nM
ED50 (Rattus norvegicus [12]): 20600 µmol/kg
Ki [8]: 16000 nM
Ki [6]: 16800 nM
NS (Rattus norvegicus [13]): Nonsignificant linear regression

Cc1ccc([C@H]2C[C@H]3CC[C@H]([C@H]2[C@@H](O)c2ccc(C)cc2)N3C)cc1
Ki [1]: 14 nM
IC50 (Rattus norvegicus [3]): 144 nM
Ki [8]: 66 nM
Max effect (Rattus norvegicus [14]): 97.9%
ED50 (Rattus norvegicus [15]): 61600 µmol/kg
Ki [6]: 464 nM

Cc1ccc([C@H]2C[C@H]3CC[C@H]([C@@H]2[C@@H](O)c2ccc(C)cc2)N3C)cc1
Ki [1]: 25 nM
IC50 (Rattus norvegicus [3]): 58 nM
